# Data published in patent US20230157286A1, “METHODS FOR INCREASING SECONDARY METABOLITE PRODUCTION IN CANNABIS” (priority 2021, published 2023).
# Tests used:
# [1] = tested on: cannabis clones of the gelato varietal; assay: Aroma compound analysis of cannabis flower by GCxGC-FID/TOF-MS; assay type: in vivo; settings: compared with control and G1
# Protocol: The major volatile aroma compounds of the flowers from the Cannabis plants were extracted using methanol as a solvent. 200 mg of flower was placed into a scintillation vial followed by mechanical grinding with a plastic disposable spatula. 2 mL of methanol was added to the flower and agitated for 15 minutes, followed by transferring 4 μL of the solution using a filtered syringe to a 20 mL headspace vial and crimped using an electric crimper.
# GC×GC analysis was performed using the INSIGHT™ reverse fill flush flow modulator (SepSolve Analytical). This was coupled for data generation to an Agilent 7890B GC and BenchTOF Select Time of flight mass spectrometer (Markes International). Time-of-Flight Mass spectrometry (TOF-MS) was used to identify compounds. Quantification of compounds was done using a flame ionization detector (HD). Sample introduction was done using a Centri Sample Concentration Platform (Markes International). […]
# Data was collected, integrated, and analyzed using the ChromSpace software platform (Sepsolve Analytical). Compounds were quantified from GC×GC—FID data with calibration curves using a 40-compound terpene standard (LGC Standards). […]
# Three different samples of the plants shown in FIG. 4 were measured to obtain an average.
# Three different samples of the plants shown were measured to for each group.
# [2] = tested on: cannabis clones of the gelato varietal; settings: in vivo
Structure (SMILES),"volatile aroma compound production / aroma content, in words [1]","THC and total cannabinoid concentration / cannabinoid production, in words [2]"
"O=S(=O)([O-])[O-].[K+].[K+] [K2SO4, potassium sulfate]",negatively affects,negatively affects
COc1ccc2[nH]cc(CCNC(C)=O)c2c1 [melatonin],,increased cannabinoid production relative to the control group
